Experimental data from patent publication US20040044006A1, “Methods of use of quinolone compounds against pneumococcal and haemophilus bacteria” (priority 1999, published 2004).
Converted amounts (≈) assume the structure as drawn. Where two headings read alike, the source gives them in different places. Values belong to the molecule of their own block, whether it stands above or below them.

Assays:
[1] = tested on: quinolone-resistant Haemophilus influenzae strains; assay: Microdilution MIC determination in HTM for quinolone-resistant Haemophilus influenzae strains; type: cell-based
Procedure: Inocula were prepared from chocolate agar plates incubated for a full 24 hours by the direct colony suspension method as follows: In a tube of Mueller-Hinton broth (Difco), an organism suspension was made to a density of a 0.5 McFarland standard (1×10^8 CFU/ml). The latter inoculum was diluted in sterile saline such that final organisms suspensions in trays yielded colony counts of 3-8×10^5 CFU/ml. Frozen microdilution trays were obtained from MicroMedia Systems, Inc. (Cleveland, Ohio, USA). Each tray contained all antimicrobials prepared in freshly made HTM. Wells were inoculated with 100 μl suspensions and incubated in ambient air at 35° C. for 20-24 hours. The lowest drug concentration showing no growth was read as the MIC. Standard quality control strains, including H. influenzae ATCC 49766, H. influenzae ATCC 49247, Staphylococcus aureus ATCC 29213 and Escherichia coli ATCC 25922 were included with each run.

[2] = tested on: quinolone susceptible pneumococci (ciprofloxacin MICs ≦4.0 μg/ml); assay: Agar dilution MICs of 207 quinolone susceptible pneumococcal strains; type: cell-based, Streptococcus pneumoniae; conditions: Streptococcus pneumoniae, agar dilution; for MIC90: read-out: MIC90; for MIC: read-out: MIC range
Procedure: All susceptible, and some intermediate and resistant strains, were recent U.S. isolates. The remainder of intermediate and resistant strains were isolated in South Africa, Spain, France, Central and Eastern Europe, and Korea. […] Additionally these strains were tested for mutations in parC, gyrA, parE, and gyrB (Pan, et al., Antimicrob. Agents Chemother. 40:2321-2326, 1996) and for efflux mechanism (Brenwald, et al., Antimicrob. Agents Chemother. 42:2032-2035, 1998). For time-kill studies, 4 penicillin susceptible, 4 intermediate and 4 resistant strains (2 quinolone resistant) were tested, while for PAE studies 5 quinolone susceptible and 1 resistant strains were studied.
(§1) Agar dilution methodology was performed on 234 strains as described previously (M. R. Jacobs, Clin. Infect. Dis. 15:119-127, 1992; Jacobs, et al., Rev. Med. Microbiol. 6:77-93, 1995), using Mueller-Hinton agar (BBL Microbiology Systems, Cockeysville, Md.) supplemented with 5% sheep blood. Broth MICs for 12 strains tested by time-kill and 6 tested by PAE were performed according to NCCLS recommendations (Methods for Dilution Antimicrobial Susceptibility Tests for Bacteria that Grow Aerobically, 3rd Edition, NCCLS, Villanova, Pa.) using cation-adjusted Mueller-Hinton broth with 5% lysed defibrinated horse blood. Standard quality control strains, including Streptococcus pneumoniae ATCC 49619, were included in each run of agar and broth dilution MICs.

[3] = tested on: pneumococcal strains; assay: Microbroth dilution MICs of strains tested by time-kill and PAE; type: cell-based; conditions: Streptococcus pneumoniae, read-out: Microdilution MIC
Procedure: as §1

[4] = strain 1, mutations S133-A N138-S, None, S84-L
[5] = strain 2, mutations NONE, S458-L, S84-F, None
[6] = strain 3, mutations S84-I, None, S84-L
[7] = strain 4, mutations D83-N, S458-S-T459, S84-F D88-N, Q468-R
[8] = strain 5, mutations E88-K, G405-S, S84-Y, None
[9] = strain 6, mutations S84-R, D420-N, S84-L A117-E, None
[10] = strain 7, mutations S84-R, D420-N, S84-L A117-E, None
[11] = strain 8, mutations S84-R, D420-N, S84-L A117-E, None
[12] = strain 9, mutations S84-R N138-S, S458-A S474-N, S84-F D88-Y, None
[13] = strain 1, GyrA S84→L, ParC S133→A N138→S, GyrB None, ParE None
[14] = strain 2, GyrA S84→F, ParC None, GyrB None, ParE S458→L
[15] = strain 3, GyrA S84→L, ParC S84→I, GyrB None, ParE None
[16] = strain 4, GyrA S84→F D88→N, ParC D83→N, GyrB None, ParE T459→S
[17] = strain 5, GyrA S84→Y, ParC E88→K, GyrB Q468→R, ParE G405→S
[18] = strain 6, GyrA S84→L A117→E, ParC S84→R, GyrB None, ParE D420→N
[19] = strain 7, GyrA S84→L A117→E, ParC S84→R, GyrB None, ParE D420→N
[20] = strain 8, GyrA S84→L A117→E, ParC S84→R, GyrB None, ParE D420→N
[21] = strain 9, GyrA S84→F D88→Y, ParC S84→R N138→S, GyrB None, ParE S458→A S474→N

Compound: C[C@H]1COc2c(N3CCN(C)CC3)c(F)cc3c(=O)c(C(=O)O)cn1c23 [Levo]
MIC [1, 4]: 0.5 µg/mL (≈ 1.38 µM)
MIC [1, 5]: 0.25 µg/mL (≈ 0.692 µM)
MIC [1, 6]: 1 µg/mL (≈ 2.77 µM)
MIC [1, 7]: 0.5 µg/mL (≈ 1.38 µM)
MIC [1, 8]: 1 µg/mL (≈ 2.77 µM)
MIC [1, 9]: 2 µg/mL (≈ 5.53 µM)
MIC [1, 10]: 2 µg/mL (≈ 5.53 µM)
MIC [1, 11]: 2 µg/mL (≈ 5.53 µM)
MIC [1, 12]: 4 µg/mL (≈ 11.1 µM)

MIC50 ([2]; Penicillin I strains): 0.25 µg/mL (≈ 0.748 µM)
MIC90 ([2]; Penicillin I strains): 1 µg/mL (≈ 2.99 µM)
MIC ([2]; Penicillin I strains): 0.125 to 1 µg/mL (≈ 0.374 to 2.99 µM)
MIC50 ([2]; Penicillin R strains): 4 µg/mL (≈ 12 µM)
MIC90 ([2]; Penicillin R strains): 4 µg/mL (≈ 12 µM)
MIC ([2]; Penicillin R strains): 2 to 16 µg/mL (≈ 5.98 to 47.8 µM)
MIC50 ([2]; Penicillin S strains): 0.016 µg/mL (≈ 0.0478 µM)
MIC90 ([2]; Penicillin S strains): 0.03 µg/mL (≈ 0.0897 µM)
MIC ([2]; Penicillin S strains): 0.008 to 0.06 µg/mL (≈ 0.0239 to 0.179 µM)
Compound: CC1(C)S[C@@H]2[C@H](NC(=O)Cc3ccccc3)C(=O)N2[C@H]1C(=O)O [Penicillin, penicillin G]
MIC ([3]; strain 1 (S) penicillin susceptible): 0.06 µg/mL (≈ 0.179 µM)
MIC ([3]; strain 2 (S) penicillin susceptible): 0.03 µg/mL (≈ 0.0897 µM)
MIC ([3]; strain 3 (S) penicillin susceptible, quinolone-resistant): 0.016 µg/mL (≈ 0.0478 µM)
MIC ([3]; strain 4 (S) penicillin susceptible, quinolone-resistant): 0.016 µg/mL (≈ 0.0478 µM)
MIC ([3]; strain 5 (I) penicillin intermediate): 0.25 µg/mL (≈ 0.748 µM)
MIC ([3]; strain 6 (I) penicillin intermediate): 0.25 µg/mL (≈ 0.748 µM)
MIC ([3]; strain 7 (I) penicillin intermediate): 1 µg/mL (≈ 2.99 µM)
MIC ([3]; strain 8 (I) penicillin intermediate): 0.5 µg/mL (≈ 1.5 µM)
MIC ([3]; strain 9 (R) penicillin resistant): 4 µg/mL (≈ 12 µM)
MIC ([3]; strain 10 (I)): 2 µg/mL (≈ 5.98 µM)
MIC ([3]; strain 11 (R) penicillin resistant): 4 µg/mL (≈ 12 µM)
MIC ([3]; strain 12 (R) penicillin resistant): 4 µg/mL (≈ 12 µM)

Compound: C[C@@H]1CN(c2c(F)c(N)c3c(=O)c(C(=O)O)cn(C4CC4)c3c2F)C[C@H](C)N1 [Spa]
MICs [1, 13]: 0.25 µg/mL
MICs [1, 14]: 0.25 µg/mL
MICs [1, 15]: 0.5 µg/mL
MICs [1, 16]: 0.25 µg/mL
MICs [1, 17]: 1 µg/mL
MICs [1, 18]: 1 µg/mL
MICs [1, 19]: 1 µg/mL
MICs [1, 20]: 1 µg/mL
MICs [1, 21]: 8 µg/mL

Compound: C[C@@H]1CN(c2c(F)c(N)c3c(=O)c(C(=O)O)cn(C4CC4)c3c2F)C[C@H](C)N1 [Spar]
MIC [1, 4]: 0.25 µg/mL (≈ 0.637 µM)
MIC [1, 5]: 0.25 µg/mL (≈ 0.637 µM)
MIC [1, 6]: 0.5 µg/mL (≈ 1.27 µM)
MIC [1, 7]: 0.25 µg/mL (≈ 0.637 µM)
MIC [1, 8]: 1 µg/mL (≈ 2.55 µM)
MIC [1, 9]: 1 µg/mL (≈ 2.55 µM)
MIC [1, 10]: 1 µg/mL (≈ 2.55 µM)
MIC [1, 11]: 1 µg/mL (≈ 2.55 µM)
MIC [1, 12]: 8 µg/mL (≈ 20.4 µM)

Compound: N[C@@H]1[C@H]2CN(c3nc4c(cc3F)c(=O)c(C(=O)O)cn4-c3ccc(F)cc3F)C[C@@H]12 [Tro]
MICs [1, 13]: 1 µg/mL
MICs [1, 14]: 0.25 µg/mL
MICs [1, 15]: 1 µg/mL
MICs [1, 16]: 0.5 µg/mL
MICs [1, 17]: 1 µg/mL
MICs [1, 18]: 4 µg/mL
MICs [1, 19]: 4 µg/mL
MICs [1, 20]: 4 µg/mL
MICs [1, 21]: 8 µg/mL

Compound: N[C@@H]1[C@H]2CN(c3nc4c(cc3F)c(=O)c(C(=O)O)cn4-c3ccc(F)cc3F)C[C@@H]12 [Trova]
MIC [1, 4]: 1 µg/mL (≈ 2.4 µM)
MIC [1, 5]: 0.25 µg/mL (≈ 0.6 µM)
MIC [1, 6]: 1 µg/mL (≈ 2.4 µM)
MIC [1, 7]: 0.5 µg/mL (≈ 1.2 µM)
MIC [1, 8]: 1 µg/mL (≈ 2.4 µM)
MIC [1, 9]: 4 µg/mL (≈ 9.61 µM)
MIC [1, 10]: 4 µg/mL (≈ 9.61 µM)
MIC [1, 11]: 4 µg/mL (≈ 9.61 µM)
MIC [1, 12]: 8 µg/mL (≈ 19.2 µM)
